Our source for the TGI, GI50 and outcome values is PubChem BioAssay (NCI).

Test systems include LXFL 529 NSCLC; RXF-631 renal; M19-MEL melanoma; KM20L2 colon; T-47D breast; MDA-N; MCF7 breast; NCI/ADR-RES ovarian; MDA-MB-231 breast.
What all share (assay): NCI tumour cell line growth inhibition, 48 h

≈ marks a conversion by molar mass, not a printed value. Where “and” joins values, the source holds several entries; their conditions need not be identical. Identical values can stand only once.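 Assay format: 96-well plates, 48-hour exposure. GI50 marks 50% less growth. TGI: concentration producing complete growth inhibition.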 Calls of active or inactive are those of the source. No stated cut-off is given here; in the data, active means GI50 below about 0.43 µM; inactive means the rest. Where a SMILES comes first, the peptide text is derived from it. [ ]: non-standard residue; d: D form. The star is where a group is joined. ξ: configuration not given here. NMeN = CN[C@@H](CC(N)=O)C(=O)O; NMeV = CN[C@H](C(=O)O)C(C)C; ξNMeV = CNC(C(=O)O)C(C)C; Boc = CC(C)(C)OC(=O)*; ξNMeA = CNC(C)C(=O)O

In the case of `O=C1NC2CCC(C2)C1c1ccccc1` (stereo not given), the TGI in the test with LXFL 529 NSCLC, with RXF-631 renal and in the test on M19-MEL melanoma was > 100 µM in each case.

Take `COc1ccc(C(=O)OC2C=COC(C)C2OC(=O)c2ccc(OC)cc2)cc1` (stereo not given): the TGI is 28.1 µM in the test with LXFL 529 NSCLC, > 77.1 µM in the test with KM20L2 colon, 81.3 µM with RXF-631 renal and > 100 µM in the test with M19-MEL melanoma.

For the compound `NC1CCCCC1N.O=S(=O)([O-])CCCN1CCOCC1.O=S(=O)([O-])CCCN1CCOCC1.[Pt+4]`, the values for the GI50 in the test on LXFL 529 NSCLC, in the test on KM20L2 colon and with M19-MEL melanoma were 27.4 µM, 5.48 µM and 4.52 µM, respectively. Further, the TGI in the test on LXFL 529 NSCLC, with KM20L2 colon and in the test with M19-MEL melanoma was > 100 µM each time.

In the case of `CN(C)CC/C(=N\Nc1ccccc1)c1ccccc1`, in the test with M19-MEL melanoma, the TGI is 77.9 µM.

Regarding `O=C(Nc1ccc(F)cc1)C(=O)C(C1OC(=O)c2ccccc21)[N+](=O)[O-]` (stereo not given), the TGI with LXFL 529 NSCLC, with KM20L2 colon and in the test on M19-MEL melanoma was > 100 µM each time.

On to `COC(=O)C(=O)C(C#N)c1ccc(CC#N)cc1` (stereo not given), for which the TGI in the test on LXFL 529 NSCLC, with KM20L2 colon and with M19-MEL melanoma was > 100 µM throughout.

For the compound `Cc1cc(C)nc(NS(=O)(=O)c2ccc(Nc3c4ccc(Cl)cc4nc4c(C(=O)Nc5ccc(S(=O)(=O)N=C(N)N)cc5)cccc34)cc2)n1`, the TGI in the test with LXFL 529 NSCLC, with KM20L2 colon and with M19-MEL melanoma was > 100 µM each time.

As to `COC(=O)C12C3C4C5C3(C#N)C1C5(C(=O)OC)C42C(=O)N(C(C)C)C(C)C` (stereo not given), the TGI with LXFL 529 NSCLC, in the test with KM20L2 colon, in the test on RXF-631 renal and in the test with M19-MEL melanoma was > 100 µM throughout.

For the compound `CCCCc1ccc(-n2c3nc(=O)n(C)c(=O)c-3nc3ccccc32)cc1`, the TGI in the test on LXFL 529 NSCLC turned out to be 30.4 µM; in the test with KM20L2 colon, 14.4 µM; with RXF-631 renal, 35.3 µM; with M19-MEL melanoma it was 2.87 µM.

Turning to `Cc1ccc(NC(=O)CCC/C(CC(=O)c2ccc(Br)cc2)=N/NC(=O)CC#N)cc1`, the TGI in the test with LXFL 529 NSCLC, with KM20L2 colon and in the test with M19-MEL melanoma was > 100 µM each time.

As for `C1CCN(C2OC3C(COC3N3CCCCC3)OC2OC2CCO[C@@H]2N2CCCCC2)CC1` (stereo not given in full), the TGI was 68.5 µM in the test on LXFL 529 NSCLC and > 100 µM in the test with KM20L2 colon.

As to `CC[O-].CC[O-].O=C1C(c2ccccc2)=C([O-])c2ccccc21.O=C1C(c2ccccc2)=C([O-])c2ccccc21.[Ti+4]`, the GI50 with LXFL 529 NSCLC, in the test on KM20L2 colon and in the test with M19-MEL melanoma was > 100 µM each time. Also, the TGI in the test on LXFL 529 NSCLC, in the test on KM20L2 colon and in the test with M19-MEL melanoma was > 100 µM in each case.

For the compound `COC(=O)C(C)N(C)C(=O)[C@H](CC(N)=O)N(C)C(=O)[C@@H]1CCCN1C(=O)[C@H](C(C)C)N(C)C(=O)C(C(C)C)N(C)C(=O)[C@@H](NC(=O)OC(C)(C)C)C(C)C` (stereo not given in full) (Boc-V[ξNMeV][NMeV]P[NMeN][ξNMeA]-OMe), the TGI in the test with T-47D breast is > 50 µM; in the test with MDA-N, > 50 µM; with MCF7 breast it was > 50 µM; in the test on LXFL 529 NSCLC, > 100 µM; in the test on KM20L2 colon it was > 100 µM; in the test with NCI/ADR-RES ovarian, > 50 µM. The TGI in the test on M19-MEL melanoma is > 100 µM; with MDA-MB-231 breast, > 50 µM.

For `CCCC(C)C[C@@H](C)CC(C)/C=C(\C)c1oc(=O)c(C)c(O)c1C` (stereo not given in full) (tested in a mixture with another compound), the TGI turned out to be 25.9 µM with LXFL 529 NSCLC and 25.7 µM in the test with KM20L2 colon.

For the compound `COC1OC(C)C(O)CC1OS(=O)(=O)c1ccc(C)cc1` (stereo not given), the TGI in the test on LXFL 529 NSCLC, with KM20L2 colon and with M19-MEL melanoma was > 100 µM each time.

As for `CCN(CC)CCNC(=O)c1nn(C)c(=S)[nH]c1=S`, the TGI in the test on LXFL 529 NSCLC, in the test on KM20L2 colon and with M19-MEL melanoma was > 100 µM each time.

In the case of `CC(=O)N/C(=C\c1cccc([N+](=O)[O-])c1)c1nc2c3c(ccc2[nH]1)C(=O)c1ccccc1C3=O`, the TGI in the test with LXFL 529 NSCLC, in the test with KM20L2 colon, in the test with RXF-631 renal and in the test with M19-MEL melanoma was > 100 µM in each case.

Take `Nc1nc(=S)[nH]c(C(=O)Nc2ccc(Cl)c(Cl)c2)c1-c1ccc(Cl)cc1`: the TGI in the test with LXFL 529 NSCLC, in the test with KM20L2 colon, in the test with RXF-631 renal and in the test with M19-MEL melanoma was > 100 µM in each case.

For `CCOC(=O)NC(=O)c1cn(CCCOC(=O)CCCCCCCCCCC(=O)OCCCn2cc(C(=O)NC(=O)OCC)c(=O)n(C)c2=O)c(=O)n(C)c1=O`, the TGI in the test on LXFL 529 NSCLC and with M19-MEL melanoma was > 100 µM throughout.

For the compound `C=C1C(=O)[C@@]23CC1C(O)[C@@H](OC(C)=O)[C@@H]2C1(C)C(OC(C)=O)C[C@@H](OC(C)=O)C(C)(C)[C@@H]1C[C@H]3OC(C)=O` (stereo not given in full), the GI50 is 2.14 µg/mL (≈ 4.01 µM) in the test with T-47D breast; 2.28 µg/mL (≈ 4.27 µM) in the test with MDA-N; 6.33 µg/mL (≈ 11.8 µM) with MCF7 breast; 16.9 µg/mL (≈ 31.6 µM) with NCI/ADR-RES ovarian; 2.23 µg/mL in the test with M19-MEL melanoma; 2.38 µg/mL (≈ 4.44 µM) in the test on MDA-MB-231 breast. The TGI is 4.55 µM and 4.57 µg/mL in the test with T-47D breast; > 10 µM and 5.3 µg/mL in the test with MDA-N; 6.7 µM and 19.1 µg/mL with MCF7 breast; > 10 µM and 37.2 µg/mL with NCI/ADR-RES ovarian; 4.85 µg/mL in the test on M19-MEL melanoma; 7.49 µg/mL in the test on MDA-MB-231 breast. The outcome with LXFL 529 NSCLC and in the test on KM20L2 colon was inactive.

`CC/C(=C(/CC)c1ccc(O)cc1)c1ccc([O-])cc1.CC/C(=C(/CC)c1ccc(O)cc1)c1ccc([O-])cc1.O=C([CH-]C(=O)c1ccccc1)c1ccccc1.O=C([CH-]C(=O)c1ccccc1)c1ccccc1.[Ti+4]`: in the test with KM20L2 colon, the GI50 was 19.3 µM and the TGI was determined as 41.3 µM.

In the case of `CCc1nc(N)nc(C(=O)NCCNC(=O)c2nc(N)nc(CC)c2C)c1C`, the TGI in the test with LXFL 529 NSCLC, in the test on KM20L2 colon, with RXF-631 renal and in the test on M19-MEL melanoma was > 100 µM throughout.

In the case of `CC(=O)/C(=C\C1=CCCO1)C(=O)Nc1ccccc1C`, the TGI in the test with LXFL 529 NSCLC, in the test with RXF-631 renal and in the test on M19-MEL melanoma was > 100 µM throughout.

Turning to `CC(=O)Nc1c(C)ccc2c1C(=O)c1ccccc1C2=O`, the TGI in the test on LXFL 529 NSCLC and with M19-MEL melanoma was > 100 µM in each case.

As for `Cc1occc1C(=S)Nc1ccc(Cl)c(/C=N/OC(C)C)c1`, the TGI was > 41.6 µM in the test with T-47D breast; 45 µM in the test with MDA-N; > 51.6 µM with MCF7 breast; > 58 µM in the test with NCI/ADR-RES ovarian; 32.6 µM in the test with MDA-MB-231 breast.

In the case of `O=C([CH-]C(=O)c1ccccc1)c1ccccc1.O=C([CH-]C(=O)c1ccccc1)c1ccccc1.O=C([CH-]C(=O)c1ccccc1)c1ccccc1.[OH3+].[Y+3]`, in the test on KM20L2 colon, the GI50 was 5.92 µM.

`COC(=O)C12CC3CC(C1)CC(C(=O)OC)(C3)C2`: the TGI with LXFL 529 NSCLC, with KM20L2 colon and with M19-MEL melanoma was > 100 µM in each case.

On to `Cc1nc2cc(N)c(F)cc2[nH]1`, for which the TGI in the test on LXFL 529 NSCLC and with M19-MEL melanoma was > 100 µM throughout.

Regarding `c1ccc2c(c1)-c1ccccc1C2N1CC2CCC(CC2)C1`, the TGI was 43.3 µM in the test with T-47D breast; > 100 µM with MDA-N; 32.7 µM in the test with MCF7 breast; 39.5 µM with NCI/ADR-RES ovarian; 37.4 µM in the test with MDA-MB-231 breast.

For `O=C1c2ccccc2C2(O)NC(=S)N(c3ccccc3)C12O` (stereo not given), the TGI in the test with LXFL 529 NSCLC, in the test with KM20L2 colon and in the test on M19-MEL melanoma was > 100 µM each time.

Consider `CCOC(=O)C1=C(Nc2ccc(Cl)cc2Cl)OC/C1=N\NS(=O)(=O)c1ccc(C)cc1`, for which the TGI in the test with LXFL 529 NSCLC, in the test on KM20L2 colon and in the test on M19-MEL melanoma was > 100 µM in each case.

As to `Cc1cc2cc3c(C)cc(=O)oc3c(C)c2o1`, the TGI in the test on T-47D breast, in the test with MDA-N, in the test on MCF7 breast, with NCI/ADR-RES ovarian and in the test on MDA-MB-231 breast was > 100 µM each time.

In the case of `C[C@]12CC[C@H](OCCC#N)CC1=CC[C@@H]1C2CC[C@]2(C)/C(=N/OCCC#N)CCC12` (stereo not given in full), the TGI in the test with LXFL 529 NSCLC, with KM20L2 colon and in the test with M19-MEL melanoma was > 100 µM each time.

As to `Cc1cccc(C)c1NC(=O)CCc1nnc2s/c(=C\c3ccc(Cl)cc3)c(=O)n12`, the TGI in the test on LXFL 529 NSCLC, in the test on KM20L2 colon and in the test on M19-MEL melanoma was > 100 µM each time.

For the compound `Cc1ccc(/C=C/C(=O)c2sc(-c3cccnc3)nc2C)cc1`, the TGI in the test with KM20L2 colon, in the test on RXF-631 renal and with M19-MEL melanoma was > 100 µM each time.

Consider `O=C(O)CC12C3C4C5C3C1C5C42` (stereo not given), for which the TGI in the test on LXFL 529 NSCLC, with KM20L2 colon and in the test on M19-MEL melanoma was > 100 µM throughout.

As for `COC(=O)C12CC(c3ccccc31)C1C(=O)OC(=O)C12` (stereo not given), the TGI in the test with LXFL 529 NSCLC, in the test with KM20L2 colon and in the test with M19-MEL melanoma was > 100 µM each time.
